Literature values as cited in US8586094B2, “Coated tablets” (Jagotec AG, priority 2000, dated 2013).
Like-named read-outs stand apart in the source and are kept apart here.

elimination / plasma half-life: approximately twenty | elimination / plasma half-life (listed as Fenofibric acid): about 20 hours
SMILES: CC(C)(Oc1ccc(C(=O)c2ccc(Cl)cc2)cc1)C(=O)O [fenofibric acid]
